The source of these data is PubChem BioAssay (NCI).

“And” between values parts separate entries of the source, which are not always exact repeats. Equal entries are not always repeated.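 Following 48 hours of exposure in 96-well plates, responses at five concentrations were used to interpolate endpoints linearly. Abbreviation: GI50, concentration required for 50% inhibition of growth. TGI marks complete inhibition of growth.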

Test systems include PC-3 prostate; K-562 leukemia; T-47D breast; RXF 393 renal; HOP-62 NSCLC; SK-MEL-28 melanoma; EKVX NSCLC; OVCAR-5 ovarian; HCT-15 colon; SK-OV-3 ovarian.
What all share (test): DTP human tumour cell line panel, 48 h

As to `c1ccc(Oc2c3ccccc3nc3ccccc23)cc1`, the GI50 (as a rule, the concentration at which growth is held to half of that of the control) was 4.91 µM in the experiment with PC-3 prostate; 0.454 µM in the experiment with K-562 leukemia; 2.81 µM in the experiment with T-47D breast; 3.6 µM in the experiment on RXF 393 renal; 3.53 µM in the experiment with HOP-62 NSCLC; 11.3 µM in the experiment on SK-MEL-28 melanoma. For the same compound, the GI50 is 4.43 µM in the experiment on EKVX NSCLC, 3.7 µM in the experiment on OVCAR-5 ovarian, 3.06 µM with HCT-15 colon and 4.34 µM with SK-OV-3 ovarian. Moreover, the TGI – broadly, the concentration giving total growth inhibition – came out at 15.8 µM with PC-3 prostate; 24.7 µM in the experiment on K-562 leukemia; 10.9 µM in the experiment on T-47D breast; 15.1 µM in the experiment on RXF 393 renal; 12.3 µM with HOP-62 NSCLC; 24.1 µM with SK-MEL-28 melanoma. The concentration for total growth inhibition (TGI) in the experiment with EKVX NSCLC turned out to be 20.9 µM; with OVCAR-5 ovarian, 13.7 µM; in the experiment with HCT-15 colon, 12.3 µM; in the experiment on SK-OV-3 ovarian, 21 µM.
On to `O=C1NC(=O)[C@@H](c2cn3c4c(cccc24)CCC3)[C@@H]1c1c[nH]c2ccccc12`, for which the 50% growth inhibitory concentration (GI50) in the experiment on PC-3 prostate was 0.411 µM and 0.521 µM; in the experiment with K-562 leukemia, 0.182 µM and 0.312 µM; with T-47D breast, 0.456 µM and 0.625 µM; with RXF 393 renal, 0.294 µM and 0.332 µM; in the experiment on HOP-62 NSCLC it was 0.423 µM and 0.465 µM; in the experiment on SK-MEL-28 melanoma, 1.04 µM and 0.66 µM. For the same compound, the GI50 in the experiment with EKVX NSCLC is 0.482 µM and 0.991 µM; in the experiment with OVCAR-5 ovarian it was 0.652 µM and 1.1 µM; with HCT-15 colon, 0.338 µM and 0.505 µM; in the experiment with SK-OV-3 ovarian, 0.48 µM and 0.372 µM. Besides, the TGI in the experiment with PC-3 prostate was > 10 µM and 37.4 µM; in the experiment on K-562 leukemia, > 10 µM and 18.6 µM; with T-47D breast it was > 10 µM and 32.4 µM; in the experiment with RXF 393 renal, > 10 µM and 2.91 µM; in the experiment with HOP-62 NSCLC, > 10 µM and 16.8 µM; in the experiment with SK-MEL-28 melanoma it was > 10 µM and 19.6 µM. Also, the TGI with EKVX NSCLC was > 10 µM and 29.3 µM; in the experiment with OVCAR-5 ovarian, > 10 µM and 22.2 µM; with HCT-15 colon, > 10 µM and 14.9 µM; with SK-OV-3 ovarian, > 10 µM and 12.2 µM.
`Cc1c(C(=O)CCl)c(=O)n(-c2ccccc2)n1C`: the GI50 in the experiment with PC-3 prostate was 11.4 µM; with K-562 leukemia, 2.76 µM; in the experiment with T-47D breast it was 2.43 µM; in the experiment on RXF 393 renal it was 1.76 µM; in the experiment with HOP-62 NSCLC, 11.5 µM; in the experiment with SK-MEL-28 melanoma, 3.27 µM. Moreover, the GI50 with EKVX NSCLC is 12.4 µM; in the experiment with OVCAR-5 ovarian, 13.3 µM; in the experiment on HCT-15 colon, 3.59 µM; in the experiment on SK-OV-3 ovarian, 16.4 µM. Besides, the TGI was 37.5 µM with PC-3 prostate; 17.3 µM in the experiment on K-562 leukemia; 17.6 µM with T-47D breast; 6.11 µM in the experiment with RXF 393 renal; 27.3 µM in the experiment with HOP-62 NSCLC; 11.6 µM with SK-MEL-28 melanoma. Also, the concentration for total growth inhibition (TGI) in the experiment with EKVX NSCLC came to 29.1 µM; in the experiment with OVCAR-5 ovarian it was 27.1 µM; in the experiment with HCT-15 colon, 15.5 µM; in the experiment on SK-OV-3 ovarian, 74.5 µM.
For `O=C(Nc1ncc([N+](=O)[O-])s1)c1cccc([N+](=O)[O-])c1`, the GI50 was 2.99 µM in the experiment with PC-3 prostate; 2.49 µM in the experiment with K-562 leukemia; 2.02 µM in the experiment with T-47D breast; 2.44 µM in the experiment on RXF 393 renal; 3.75 µM in the experiment on HOP-62 NSCLC; 4.64 µM in the experiment with SK-MEL-28 melanoma. Also, the GI50 was 2.8 µM with EKVX NSCLC, 12.4 µM in the experiment on OVCAR-5 ovarian, 6.11 µM in the experiment with HCT-15 colon and 3.72 µM with SK-OV-3 ovarian. Also, the TGI in the experiment with PC-3 prostate was over 100 µM; in the experiment with K-562 leukemia, over 40 µM; in the experiment with T-47D breast it was 12.9 µM; in the experiment with RXF 393 renal it was 6.91 µM; in the experiment with HOP-62 NSCLC, over 40.9 µM; in the experiment on SK-MEL-28 melanoma, over 55.5 µM. The concentration for total growth inhibition (TGI) is over 100 µM with EKVX NSCLC, over 100 µM in the experiment on OVCAR-5 ovarian, over 100 µM in the experiment with HCT-15 colon and 35.7 µM with SK-OV-3 ovarian.
`O=C1c2cccnc2-c2nc(-c3ccccn3)cc3c2c1nc1ccccc13`: the GI50 in the experiment on PC-3 prostate is 0.557 µM; in the experiment on K-562 leukemia, 0.136 µM; with T-47D breast it was 0.601 µM; in the experiment with RXF 393 renal it was 0.285 µM; in the experiment on HOP-62 NSCLC it was 0.139 µM; with SK-MEL-28 melanoma, 0.452 µM. In addition, the GI50 is 0.62 µM with EKVX NSCLC, 0.745 µM in the experiment with OVCAR-5 ovarian, under 0.0209 µM in the experiment with HCT-15 colon and 0.192 µM in the experiment on SK-OV-3 ovarian. Besides, the total growth inhibition concentration (TGI) in the experiment on PC-3 prostate was determined as 1.85 µM; in the experiment with K-562 leukemia, 0.632 µM; in the experiment with T-47D breast, 11.9 µM; in the experiment with RXF 393 renal, 5.84 µM; in the experiment with HOP-62 NSCLC, 1.49 µM; in the experiment with SK-MEL-28 melanoma, 1.75 µM. Further, the TGI in the experiment with EKVX NSCLC turned out to be 2.1 µM; in the experiment on OVCAR-5 ovarian it was 3.43 µM; in the experiment with HCT-15 colon, 0.259 µM; in the experiment on SK-OV-3 ovarian it was 0.581 µM.
With `CS(=O)(=O)c1ccc(Oc2nccc(-c3c(-c4ccc(F)cc4)ncn3C3CCNCC3)n2)cc1`, the GI50 in the experiment on PC-3 prostate was over 25 µM; with K-562 leukemia, over 9.38 µM; in the experiment with T-47D breast, over 25 µM; with RXF 393 renal it was over 25 µM; in the experiment with HOP-62 NSCLC, over 25 µM; in the experiment with SK-MEL-28 melanoma it was over 25 µM. Besides, the GI50 in the experiment on EKVX NSCLC, in the experiment with OVCAR-5 ovarian, in the experiment with HCT-15 colon and in the experiment on SK-OV-3 ovarian was over 25 µM throughout. In addition, the TGI in the experiment on PC-3 prostate is over 25 µM; with K-562 leukemia, over 14.9 µM; in the experiment on T-47D breast, over 25 µM; with RXF 393 renal, over 25 µM; in the experiment with HOP-62 NSCLC, over 25 µM; in the experiment with SK-MEL-28 melanoma it was over 25 µM. The concentration for total growth inhibition (TGI) in the experiment on EKVX NSCLC, in the experiment with OVCAR-5 ovarian, in the experiment with HCT-15 colon and in the experiment with SK-OV-3 ovarian was over 25 µM each time.
Turning to `O=C1NC(=O)C2=C1CCC2O` (stereo not given), the TGI with PC-3 prostate, with K-562 leukemia, in the experiment on T-47D breast, with RXF 393 renal, with HOP-62 NSCLC and in the experiment with SK-MEL-28 melanoma was over 100 µM throughout. The total growth inhibition concentration (TGI) in the experiment with EKVX NSCLC, with OVCAR-5 ovarian, in the experiment on HCT-15 colon and in the experiment with SK-OV-3 ovarian was over 100 µM each time.
On to `CC1=C(C(=O)Nc2ccc(F)c(Cl)c2)C(c2cccc(O)c2)NC(=S)N1` (stereo not given), for which the GI50 is 32.1 µM in the experiment with PC-3 prostate; 16 µM in the experiment with K-562 leukemia; over 50 µM with T-47D breast; 14 µM in the experiment with RXF 393 renal; over 50 µM in the experiment with HOP-62 NSCLC; over 50 µM in the experiment with SK-MEL-28 melanoma. The GI50 in the experiment on EKVX NSCLC was 17.8 µM; in the experiment with OVCAR-5 ovarian, 17 µM; in the experiment on HCT-15 colon it was 47.8 µM; in the experiment on SK-OV-3 ovarian, 16.8 µM. The TGI was over 50 µM in the experiment on PC-3 prostate; 42.5 µM in the experiment on K-562 leukemia; over 50 µM in the experiment with T-47D breast; 30.5 µM with RXF 393 renal; over 50 µM in the experiment on HOP-62 NSCLC; over 50 µM in the experiment on SK-MEL-28 melanoma. The concentration for total growth inhibition (TGI) in the experiment on EKVX NSCLC, with OVCAR-5 ovarian, with HCT-15 colon and in the experiment on SK-OV-3 ovarian was over 50 µM each time.
